Assay results as given in paper PMC5218480 (PLoS ONE, 2017).

System: MV-4-11 cells
Assay: Gene expression microarray analysis (Affymetrix PrimeView) and GSEA
Format: cell-based, human
Design: RFU PODN (11730768_x_at) / Fold change /veh PODN (11730768_x_at) / RFU LINC00158 (11744669_a_at) / Fold change /veh LINC00158 (11744669_a_at) / RFU DUSP10 (11751237_a_at) / Fold change /veh DUSP10 (11751237_a_at) / RFU ID3 (11757404_x_at) / Fold change /veh ID3 (11757404_x_at) / RFU PLEKHG5 (11737974_s_at) / Fold change /veh PLEKHG5 (11737974_s_at) / RFU LRRC4B (11730491_at) / Fold change /veh LRRC4B (11730491_at) / RFU GIMAP4 (11747438_a_at) / Fold change /veh GIMAP4 (11747438_a_at) / RFU KRT8 (11758183_x_at) / Fold change /veh KRT8 (11758183_x_at) / RFU CNN1 (11734310_a_at) / Fold change /veh CNN1 (11734310_a_at) / RFU VPS37D (11726825_at) / Fold change /veh VPS37D (11726825_at) / RFU C10orf10 (11716522_x_at) / Fold change /veh C10orf10 (11716522_x_at) / RFU KIR2DL2 /// KIR2DL4 /// KIR2DL5A /// KIR2DL5B /// KIR2DS1 /// KIR2DS2 /// KIR2DS3 /// KIR2DS4 /// KIR3DL3 /// KIR3DL3 /// KIR3DS1 (11738374_at) / Fold change /veh KIR2DL2 /// KIR2DL4 /// KIR2DL5A /// KIR2DL5B /// KIR2DS1 /// KIR2DS2 /// KIR2DS3 /// KIR2DS4 /// KIR3DL3 /// KIR3DL3 /// KIR3DS1 (11738374_at) / RFU C1QL1 (11718748_at) / Fold change /veh C1QL1 (11718748_at) / RFU TMPRSS4 (11747572_a_at) / Fold change /veh TMPRSS4 (11747572_a_at) / RFU HAMP (11756126_x_at) / Fold change /veh HAMP (11756126_x_at) / RFU RNFT2 (11725882_a_at) / Fold change /veh RNFT2 (11725882_a_at) / RFU NR4A2 (11747474_a_at) / Fold change /veh NR4A2 (11747474_a_at) / RFU ABCC12 (11746883_a_at) / Fold change /veh ABCC12 (11746883_a_at) / RFU TMEM136 (11760407_x_at) / Fold change /veh TMEM136 (11760407_x_at) / RFU CLDN22 /// WWC2 (11732394_at) / Fold change /veh CLDN22 /// WWC2 (11732394_at) / RFU HLA-DPB1 (11760878_x_at) / Fold change /veh HLA-DPB1 (11760878_x_at) / RFU SPINT1 (11716480_a_at) / Fold change /veh SPINT1 (11716480_a_at) / RFU GAP43 (11754022_s_at) / Fold change /veh GAP43 (11754022_s_at) / RFU A4GNT (11735810_at) / Fold change /veh A4GNT (11735810_at) / RFU PRB3 (11715151_x_at) / Fold change /veh PRB3 (11715151_x_at) / RFU TUBB4B (11761932_at) / Fold change /veh TUBB4B (11761932_at) / RFU CAPN14 (11732068_a_at) / Fold change /veh CAPN14 (11732068_a_at) / RFU TMCC2 (11721928_a_at) / Fold change /veh TMCC2 (11721928_a_at) / RFU IRGQ (11745062_a_at) / Fold change /veh IRGQ (11745062_a_at) / RFU FAM174B (11720279_a_at) / Fold change /veh FAM174B (11720279_a_at) / RFU TMPRSS4 (11748680_a_at) / Fold change /veh TMPRSS4 (11748680_a_at) / RFU FAM212B (11763350_a_at) / Fold change /veh FAM212B (11763350_a_at) / RFU PLEKHG5 (11743358_a_at) / Fold change /veh PLEKHG5 (11743358_a_at) / RFU ZSCAN30 (11745921_a_at) / Fold change /veh ZSCAN30 (11745921_a_at) / RFU CMKLR1 (11741424_a_at) / Fold change /veh CMKLR1 (11741424_a_at) / RFU LOC101060620 /// MAPK8IP1 (11723275_at) / Fold change /veh LOC101060620 /// MAPK8IP1 (11723275_at) / RFU SPTSSB (11747773_x_at) / Fold change /veh SPTSSB (11747773_x_at) / RFU PRSS12 (11739890_at) / Fold change /veh PRSS12 (11739890_at) / RFU BIN1 (11741810_x_at) / Fold change /veh BIN1 (11741810_x_at) / RFU WNT11 (11732464_a_at) / Fold change /veh WNT11 (11732464_a_at) / RFU C10orf10 (11716521_a_at) / Fold change /veh C10orf10 (11716521_a_at) / RFU C5orf56 (11738089_at) / Fold change /veh C5orf56 (11738089_at) / RFU CYB561 (11721691_x_at) / Fold change /veh CYB561 (11721691_x_at) / RFU ANKRD19P (11752326_a_at) / Fold change /veh ANKRD19P (11752326_a_at) / RFU OR2T12 /// OR2T33 /// OR2T8 (11738714_s_at) / Fold change /veh OR2T12 /// OR2T33 /// OR2T8 (11738714_s_at) / RFU VCAN (11748164_a_at) / Fold change /veh VCAN (11748164_a_at) / RFU JSRP1 (11732532_at) / Fold change /veh JSRP1 (11732532_at) / RFU KRTAP10-11 (11738290_x_at) / Fold change /veh KRTAP10-11 (11738290_x_at) / RFU MYO3A (11730013_a_at) / Fold change /veh MYO3A (11730013_a_at) / RFU EBF3 (11725865_a_at) / Fold change /veh EBF3 (11725865_a_at) / RFU CAMK2N1 (11719241_x_at) / Fold change /veh CAMK2N1 (11719241_x_at) / RFU C5orf56 (11738088_a_at) / Fold change /veh C5orf56 (11738088_a_at) / RFU OLFML3 (11715873_a_at) / Fold change /veh OLFML3 (11715873_a_at) / RFU LOC100653217 /// NTM (11731650_a_at) / Fold change /veh LOC100653217 /// NTM (11731650_a_at) / RFU MAPK11 (11762145_a_at) / Fold change /veh MAPK11 (11762145_a_at) / RFU FIZ1 (11724087_x_at) / Fold change /veh FIZ1 (11724087_x_at) / RFU OASL (11726364_x_at) / Fold change /veh OASL (11726364_x_at) / RFU SOX15 (11748057_x_at) / Fold change /veh SOX15 (11748057_x_at) / RFU CD79A (11719716_a_at) / Fold change /veh CD79A (11719716_a_at) / RFU HIST1H1D (11736915_at) / Fold change /veh HIST1H1D (11736915_at) / RFU CASKIN2 (11723855_a_at) / Fold change /veh CASKIN2 (11723855_a_at) / RFU LOC730098 (11760151_x_at) / Fold change /veh LOC730098 (11760151_x_at) / RFU OR4N2 (11742367_at) / Fold change /veh OR4N2 (11742367_at) / RFU PRRT2 (11749266_a_at) / Fold change /veh PRRT2 (11749266_a_at) / RFU SNX32 (11753110_a_at) / Fold change /veh SNX32 (11753110_a_at) / RFU CDHR5 (11726645_a_at) / Fold change /veh CDHR5 (11726645_a_at) / RFU RCAN1 (11760418_a_at) / Fold change /veh RCAN1 (11760418_a_at) / RFU FAM167A (11723789_a_at) / Fold change /veh FAM167A (11723789_a_at) / RFU FAM26E (11764081_at) / Fold change /veh FAM26E (11764081_at) / RFU ISYNA1 (11749810_s_at) / Fold change /veh ISYNA1 (11749810_s_at) / RFU ACY1 (11761880_at) / Fold change /veh ACY1 (11761880_at) / RFU 11764098_at / Fold change /veh 11764098_at / RFU SAMD14 (11745864_x_at) / Fold change /veh SAMD14 (11745864_x_at) / RFU NPB (11741838_a_at) / Fold change /veh NPB (11741838_a_at) / RFU TMPRSS6 (11731388_a_at) / Fold change /veh TMPRSS6 (11731388_a_at) / RFU KRTAP10-2 (11738614_at) / Fold change /veh KRTAP10-2 (11738614_at) / RFU ARHGAP8 /// PRR5-ARHGAP8 (11727945_x_at) / Fold change /veh ARHGAP8 /// PRR5-ARHGAP8 (11727945_x_at) / RFU KRTAP5-7 /// NADSYN1 (11734609_at) / Fold change /veh KRTAP5-7 /// NADSYN1 (11734609_at) / RFU RASL12 (11751679_a_at) / Fold change /veh RASL12 (11751679_a_at) / RFU CDKN2B (11736163_a_at) / Fold change /veh CDKN2B (11736163_a_at) / RFU PRF1 (11729649_at) / Fold change /veh PRF1 (11729649_at) / RFU, ZNF638 /// ZNF638-IT1 / Fold change vs veh, ZNF638 /// ZNF638-IT1 / RFU, PANK3 / Fold change vs veh, PANK3 / RFU, SH3YL1 / Fold change vs veh, SH3YL1 / RFU, ZEB2 / Fold change vs veh, ZEB2 / RFU, NRIP1 / Fold change vs veh, NRIP1 / RFU, PTTG1IP / Fold change vs veh, PTTG1IP / RFU, CAPN2 / Fold change vs veh, CAPN2 / RFU, MED14 / Fold change vs veh, MED14 / RFU, SNORA58 / Fold change vs veh, SNORA58 / RFU, C1orf63 / Fold change vs veh, C1orf63 / RFU, LRRFIP1 / Fold change vs veh, LRRFIP1 / RFU, NDUFAF7 / Fold change vs veh, NDUFAF7 / RFU, SLC12A2 / Fold change vs veh, SLC12A2 / RFU, IBTK / Fold change vs veh, IBTK / RFU, ESF1 / Fold change vs veh, ESF1 / Fold change vs veh, TMEM50B / RFU, TAOK1 / Fold change vs veh, TAOK1 / RFU, ACBD3 / Fold change vs veh, ACBD3 / RFU, TMA16 / Fold change vs veh, TMA16 / RFU, RWDD3 / Fold change vs veh, RWDD3 / RFU, BCAT1 / Fold change vs veh, BCAT1 / RFU, EDEM3 / Fold change vs veh, EDEM3 / RFU, TMEM33 / Fold change vs veh, TMEM33 / RFU, WDR75 / Fold change vs veh, WDR75 / RFU, AHCTF1 / Fold change vs veh, AHCTF1 / RFU, TFRC / Fold change vs veh, TFRC / RFU, ZDHHC17 / Fold change vs veh, ZDHHC17 / RFU, NOM1 / Fold change vs veh, NOM1 / RFU, ARL8B / Fold change vs veh, ARL8B / RFU, ZBTB11 / Fold change vs veh, ZBTB11 / RFU, TAMM41 / Fold change vs veh, TAMM41 / RFU, KIAA1704 /// LOC100996395 / Fold change vs veh, KIAA1704 /// LOC100996395 / RFU, ING1 / Fold change vs veh, ING1 / RFU, TRMT61B / Fold change vs veh, TRMT61B / RFU, FUBP3 / Fold change vs veh, FUBP3 / RFU, TP53 / Fold change vs veh, TP53 / RFU, TNKS2 / Fold change vs veh, TNKS2 / RFU, ZFP14 / Fold change vs veh, ZFP14 / RFU, ACTR2 / Fold change vs veh, ACTR2 / RFU, PPP3R1 / Fold change vs veh, PPP3R1 / RFU, PIK3R1 / Fold change vs veh, PIK3R1 / RFU, HNRNPA1 / Fold change vs veh, HNRNPA1 / RFU, RNF170 / Fold change vs veh, RNF170 / RFU, ZNF28 / Fold change vs veh, ZNF28 / RFU, RNGTT / Fold change vs veh, RNGTT / RFU, OGT / Fold change vs veh, OGT / RFU, BRD1 / Fold change vs veh, BRD1 / RFU, MARS / Fold change vs veh, MARS / RFU, ZNF655 / Fold change vs veh, ZNF655 / RFU, FAHD1 / Fold change vs veh, FAHD1 / RFU, BDP1 / Fold change vs veh, BDP1 / RFU, LRRCC1 / Fold change vs veh, LRRCC1 / RFU, ARID1A / Fold change vs veh, ARID1A / RFU, ZNF146 / Fold change vs veh, ZNF146 / RFU, ZNF330 / Fold change vs veh, ZNF330 / RFU, GPN3 / Fold change vs veh, GPN3 / RFU, C9orf123 / Fold change vs veh, C9orf123 / RFU, N4BP2L2 / Fold change vs veh, N4BP2L2 / RFU, ARFIP1 / Fold change vs veh, ARFIP1 / RFU, FAM179B / Fold change vs veh, FAM179B / RFU, BCL10 / Fold change vs veh, BCL10 / RFU, UHRF1BP1L / Fold change vs veh, UHRF1BP1L / RFU, BET1 / Fold change vs veh, BET1 / RFU, CNOT2 / Fold change vs veh, CNOT2 / RFU, ZNF268 / Fold change vs veh, ZNF268 / Fold change vs veh, ZNF507 / RFU, DGCR2 / Fold change vs veh, DGCR2 / RFU, WDSUB1 / Fold change vs veh, WDSUB1 / Fold change vs veh, HSP90B1 /// MIR3652 / RFU, ADSS / Fold change vs veh, ADSS / RFU, GK / Fold change vs veh, GK / RFU, ZNF148 / Fold change vs veh, ZNF148 / RFU, TAF9 / Fold change vs veh, TAF9 / RFU, SLC1A5 / Fold change vs veh, SLC1A5 / RFU, SLMO2 / Fold change vs veh, SLMO2 / RFU, ABCC4 / Fold change vs veh, ABCC4 / RFU, LOC101060439 /// RAP1B / Fold change vs veh, LOC101060439 /// RAP1B / RFU, RFX7 / Fold change vs veh, RFX7 / RFU, GTPBP10 / Fold change vs veh, GTPBP10 / RFU, CNEP1R1 / Fold change vs veh, CNEP1R1 / RFU, BIVM-ERCC5 /// ERCC5 / Fold change vs veh, BIVM-ERCC5 /// ERCC5 / RFU, ILF3 / Fold change vs veh, ILF3 / RFU 11762660_at / Fold change /veh 11762660_at / RFU VCAN (11757783_s_at) / Fold change /veh VCAN (11757783_s_at) / RFU DDX43 (11728927_at) / Fold change /veh DDX43 (11728927_at) / RFU KRT8 (11758188_x_at) / Fold change /veh KRT8 (11758188_x_at) / RFU NKD1 (11759106_at) / Fold change /veh NKD1 (11759106_at) / RFU SRD5A1 (11742802_a_at) / Fold change /veh SRD5A1 (11742802_a_at) / RFU TPSAB1 /// TPSB2 (11721975_s_at) / Fold change /veh TPSAB1 /// TPSB2 (11721975_s_at) / RFU GSTM3 (11746129_a_at) / Fold change /veh GSTM3 (11746129_a_at) / RFU IL23R (11737362_x_at) / Fold change /veh IL23R (11737362_x_at) / RFU TMEM51 (11727254_a_at) / Fold change /veh TMEM51 (11727254_a_at) / RFU PIWIL2 (11732686_x_at) / Fold change /veh PIWIL2 (11732686_x_at) / RFU ORM1 (11744905_x_at) / Fold change /veh ORM1 (11744905_x_at) / RFU CCDC152 (11743942_at) / Fold change /veh CCDC152 (11743942_at) / RFU ECM1 (11717891_a_at) / Fold change /veh ECM1 (11717891_a_at) / RFU IL23R (11748794_a_at) / Fold change /veh IL23R (11748794_a_at) / RFU TNFAIP8L3 (11732012_x_at) / Fold change /veh TNFAIP8L3 (11732012_x_at) / RFU MBOAT4 (11741988_at) / Fold change /veh MBOAT4 (11741988_at) / RFU 11764193_at / Fold change /veh 11764193_at / RFU TMEM53 (11763286_at) / Fold change /veh TMEM53 (11763286_at) / RFU MAGEB2 (11727129_at) / Fold change /veh MAGEB2 (11727129_at) / RFU TMEM200A (11744735_a_at) / Fold change /veh TMEM200A (11744735_a_at) / RFU CCDC152 (11751479_a_at) / Fold change /veh CCDC152 (11751479_a_at) / RFU FAM211A (11726209_a_at) / Fold change /veh FAM211A (11726209_a_at) / RFU RGS16 (11746705_a_at) / Fold change /veh RGS16 (11746705_a_at) / RFU VCAN (11755009_s_at) / Fold change /veh VCAN (11755009_s_at) / RFU RHOB (11743442_s_at) / Fold change /veh RHOB (11743442_s_at) / RFU RGS16 (11720943_a_at) / Fold change /veh RGS16 (11720943_a_at) / RFU RGS16 (11720944_at) / Fold change /veh RGS16 (11720944_at) / RFU, VPS4B / Fold change vs veh, VPS4B / RFU, CREB1 / Fold change vs veh, CREB1 / RFU, DNAJC13 / Fold change vs veh, DNAJC13 / RFU, GNAQ / Fold change vs veh, GNAQ / RFU, CDK5R1 / Fold change vs veh, CDK5R1 / RFU, ZRANB3 / Fold change vs veh, ZRANB3 / RFU, CUL4A / Fold change vs veh, CUL4A / RFU, CCNY / Fold change vs veh, CCNY / RFU, UFL1 / Fold change vs veh, UFL1 / RFU, COG3 / Fold change vs veh, COG3 / RFU, DIAPH2 / Fold change vs veh, DIAPH2 / RFU, SKA2 / Fold change vs veh, SKA2 / RFU, AFF3 / Fold change vs veh, AFF3 / RFU, LMF1 / Fold change vs veh, LMF1 / RFU, IPO11 / Fold change vs veh, IPO11 / RFU, DFFB / Fold change vs veh, DFFB / RFU, FOXP1 / Fold change vs veh, FOXP1 / RFU, CARD8 / Fold change vs veh, CARD8 / RFU, STRN3 / Fold change vs veh, STRN3 / RFU, ADK / Fold change vs veh, ADK / RFU, RASSF2 / Fold change vs veh, RASSF2 / RFU, WIPF1 / Fold change vs veh, WIPF1 / RFU, LARP1B / Fold change vs veh, LARP1B / RFU, RASA1 / Fold change vs veh, RASA1 / RFU, RB1 / Fold change vs veh, RB1 / RFU, PPFIA1 / Fold change vs veh, PPFIA1 / RFU, MAT2A / Fold change vs veh, MAT2A / RFU, CCT5 / Fold change vs veh, CCT5 / RFU, WDR92 / Fold change vs veh, WDR92 / RFU, CUX1 / Fold change vs veh, CUX1 / RFU, TTC7A / Fold change vs veh, TTC7A / RFU, TMEM135 / Fold change vs veh, TMEM135 / RFU, DEPTOR / Fold change vs veh, DEPTOR / RFU, CPM / Fold change vs veh, CPM / RFU, DNAJB6 / Fold change vs veh, DNAJB6 / RFU, CACNA2D3 / Fold change vs veh, CACNA2D3 / RFU, DTX4 / Fold change vs veh, DTX4 / RFU, TFCP2 / Fold change vs veh, TFCP2 / RFU, GMCL1 /// GMCL1P1 / Fold change vs veh, GMCL1 /// GMCL1P1 / RFU, AEBP2 / Fold change vs veh, AEBP2 / RFU, SNHG1 /// SNORD22 /// SNORD25 /// SNORD26 /// SNORD27 /// SNORD28 /// SNORD29 /// SNORD31 / Fold change vs veh, SNHG1 /// SNORD22 /// SNORD25 /// SNORD26 /// SNORD27 /// SNORD28 /// SNORD29 /// SNORD31 / Fold change (Aza/veh), C12orf56 (ProbeSet 11735607_a_at) / Fold change (ACY-1035/veh), C12orf56 (ProbeSet 11735607_a_at) / Fold change (Aza/veh), FGFR1OP (ProbeSet 11751329_s_at) / Fold change (ACY-1035/veh), FGFR1OP (ProbeSet 11751329_s_at) / Fold change (Aza/veh), VPS36 (ProbeSet 11739960_a_at) / Fold change (ACY-1035/veh), VPS36 (ProbeSet 11739960_a_at) / RFU SYPL1 (11715823_x_at) / Fold change /veh SYPL1 (11715823_x_at) / RFU IGFBP7 (11715501_s_at) / Fold change /veh IGFBP7 (11715501_s_at) / RFU REEP3 (11722064_at) / Fold change /veh REEP3 (11722064_at) / RFU IGLL1 (11728026_x_at) / Fold change /veh IGLL1 (11728026_x_at): dose or concentration left out as unconfirmed
Conditions: ProbeSet 11743929_at; LIST B

Compound: Nc1ncn([C@@H]2O[C@H](CO)[C@@H](O)[C@H]2O)c(=O)n1 [azacitidine]
- RFU, UHRF1BP1L: 257.64 RFU
